Consider two compounds from ChEMBL document CHEMBL5149990, “New Protocol-Guided Exploitation of a Lysosomal Sulfatase Inhibitor to Suppress Cell Growth in Glioblastoma Multiforme” (J Med Chem, 2021).

Calls of active or inactive are those of the source. The calls are words filed in the database; no cut-off is given here.

Series [1] is described as follows: Drug localization in lysosome of human T98G cells by Lyso-Tracker Red based confocal laser scanning microscopy. The format is ADME, cell-based.
For series [2], the species on record is Homo sapiens. The series is described as follows: Binding affinity to sulfatase in human liver S9 fraction. The format is subcellular.
The species named for series [3] is Homo sapiens. The series is described as follows: Binding affinity to lysosome sulfatase (unknown origin) assessed as Km. The format is subcellular.
Series [4] relates to T98G. The series is described as follows: Binding affinity to sulfatase in human T98G cells assessed as increase in fluorescence intensity at 40 uM by confocal fluorescence microscopic analysis. The format is cell-based.
The test system of series [5] is T98G. Description: Cytotoxicity against human T98G cells assessed as reduction in cell viability incubated for 4 hrs by MTT assay. It is filed as toxicity, cell-based. A general note: Tetrazolium assays rely on reduction of a dye to a coloured formazan, in cell work by metabolically active cells.
The species entered for series [6] is Homo sapiens. The series is described as follows: Binding affinity to lysosome sulfatase (unknown origin) assessed as Vmax. It is filed as subcellular.
Series [7] can be described thus: Inhibition of lysosome sulfatase (unknown origin) assessed as reduction in fluorescence intensity using 2-(2-Morpholinoethyl)-6-(((2S,3R,4S,5S,6R)-3,4,5-trihydroxy-6-(hydroxymethyl)tetrahydro-2H-pyran-2-yl)oxy)-1H-benzo[de]-isoquinoline-1,3(2H)-dione as substrate incubated for 60 mins by fluorescence based analysis. The format is subcellular, Homo sapiens.
Series [8] relates to T98G. Description: Cytotoxicity against human T98G cells assessed as reduction in cell viability at 3.5 to 350 uM incubated for 48 hrs by MTT assay relative to control. The format is toxicity, cell-based. To be noted: dose 3.5-350 µM.
The test system of series [9] is T98G. The series is described as follows: Binding affinity to sulfatase in human T98G cells assessed as reduction in fluorescence intensity at 125 uM in presence of 2-(2-Morpholinoethyl)-6-(((2S,3R,4S,5S,6R)-3,4,5-trihydroxy-6-(hydroxymethyl)tetrahydro-2H-pyran-2-yl)oxy)-1H-benzo[de]-isoquinoline-1,3(2H)-dione by confocal fluorescence microscopic analysis. The format is cell-based.

Usually Km stands for the concentration of substrate that gives half-maximal velocity. In general, Vmax refers to the rate approached at saturating substrate. Take `O=C1c2cccc3c(O[C@@H]4O[C@H](CO)[C@@H](O)[C@H](O)[C@H]4O)ccc(c23)C(=O)N1CCN1CCOCC1`: in series [1], the Drug uptake result was “Active”. Moreover, the result in the series filed under Homo sapiens [2] and in the series on T98G [4] was Active. In addition, the Km in the series filed under Homo sapiens [3] was 21.6 µM. Besides, the Activity result in the series with T98G [5] is recorded as “Non-Toxic”. Also, the Vmax in the series listed under Homo sapiens [6] was 70.9 nmol/min/mg.

For orientation: IC50 means the midpoint of a concentration-inhibition curve. Turning to `CC1(C)[C@H](C(=O)O)N2C(=O)C[C@H]2S1(=O)=O` [SULBACTAM], in [7], the IC50 was 3.5 µM. Also, in the series with T98G [8], the Activity came out at 34%. Also, the outcome in the series with T98G [9] was Active.
